Measured values reported in patent US8993515B2, “Peptidomimetics comprising N-amino cyclic urea residues and uses thereof” (Valorisation-Recherche, Limited Partnership, priority 2012, dated 2015).
Residues, ends and D or L forms follow the SMILES beside them.

Columns and labels:
[1] = test system: NO production induced by TLR-2 agonist R-FSL-1 in J774 cells; assay: Nitrite (NO) production induced by TLR-2 agonist R-FSL-1 in J774 cells; type: cell-based; conditions: 10^−6 M, 2 hr pre-exposure; R-FSL-1 300 ng/mL 17 hr
Description: J774 cells (ATCC passage 10 to 15) were cultured (2×10^5 cells/ml) in 24-well plates (Costar 3524 NY) in DMEM supplemented with FBS (10%).Three hours after plating, cell culture medium was replaced with 0.5 mL of the same medium containing 10^−6M of imidazolones derivatives for 2 hr pretreatment. Cells were then exposed to R-FSL1 (300 ng/ml) for 17 hr at 37° C. Cell culture media were collected and aliquots (10 μL) were mixed with 10 μL of 2,3 diaminonapthalene reagent (0.05 mg/mL in HCl 0.62M) for nitrite levels determination by fluorescence (λexc 365 nm and λem 430 nm) (Misko et al. (1993) Anal Biochem, 214, 11-16).

[2] = molecular target: T1, recombinant soluble His-tagged CD36 (Homo sapiens, UniProt P16671); assay: SPR spectroscopy binding to CD36; conditions: for Kd: SPR response for ligand 100 nM to 30 μM fitted to Langmuir isotherm; for SPR ΔλSPR (nm): SPR response on CD36 functionalized surface
T1 construct: recombinant soluble His-tagged CD36 functionalized surface
T1 sequence (P16671 30-439 limits assumed): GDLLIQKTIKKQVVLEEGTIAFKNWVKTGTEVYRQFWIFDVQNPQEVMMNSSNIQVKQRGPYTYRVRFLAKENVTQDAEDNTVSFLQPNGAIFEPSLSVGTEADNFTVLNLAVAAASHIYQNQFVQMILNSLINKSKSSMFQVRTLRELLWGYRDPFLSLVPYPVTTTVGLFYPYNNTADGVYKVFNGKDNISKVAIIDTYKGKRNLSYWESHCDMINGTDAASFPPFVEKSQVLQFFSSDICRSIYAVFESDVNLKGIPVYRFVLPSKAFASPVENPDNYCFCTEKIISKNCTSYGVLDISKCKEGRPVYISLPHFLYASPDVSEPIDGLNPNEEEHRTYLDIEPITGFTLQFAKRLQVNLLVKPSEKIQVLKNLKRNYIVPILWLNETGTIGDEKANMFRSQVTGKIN
Description: The affinity of the small peptide ligand binding to a recombinant soluble His-tagged CD36 functionalized surface was screened by SPR sensing as previously described (Bolduc, O. R.; Lambert-Lanteigne, P.; Colin, D. Y.; Zhao, S. S.; Proulx, C.; Boeglin, D.; Lubell, W. D.; Pelletier, J. N.; Féthière, J.; Ong, H.; Masson, J.-F. Analyst. 2011, 136, 3142-3148). Briefly, the SPR sensors were prepared by immobilizing the His-tagged CD36 to 3-mercaptopropionyl-leucinyl-histidinyl-aspartyl-leucinyl-histidinyl-aspartic acid (3-Mpa-LHDLHD) with Nα,Nα-bis(carboxymethyl)-L-lysine at the C-terminus, a modified peptide monolayer competent to bind His-tagged biomolecules. A calibration curve of the SPR response for ligand concentrations ranging from 100 nM to 30 μM was fitted to the Langmuir isotherm (Equation 1) to determine K (K=1/Kd) for the CD36-ligand system. ΔλSPR=(K[ligand])ΔλSPRmax(1+K[ligand])^−1 (1)

human TF-1 cells = assay: IL-1β-induced thymocyte (TF-1) proliferation, CyQUANT NF dye; type: cell-based; conditions: peptide 1 μM; human IL-1β 25 ng/mL; 48 h
Description: Immune cell proliferation was assessed by DNA intercalation of CyQUANT NF® fluorescent dye (Invitrogen, Carlsbad, Calif., USA). Essentially, human TF-1 cells (CRL-2003, American Type Culture Collection) were cultured in complete RPMI 1640 (WISENT Inc., Montréal, Quebec, Canada) supplemented with human GM-CSF (2 ng/ml, PeptroTech, Rocky Hill, N.J., USA). Cells (passage 5 and at least 85% viable, as verified by trypan blue dying) were reincorporated into RPMI 1640 medium deprived of phenol red (Gibco Invitrogen®, Carlsbad, Calif., USA) and of growth factors [i.e. fetal bovine serum (FBS) and GM-CSF] for 18 h and split (5×10^3 cells in 200 μL/well) into 96-well non-adherent flat bottom culture plates (Sarstedt®, Nümbrecht, Germany). Following 15 min pre-incubation with peptide or peptidomimetic (1 μM), the cells were treated with human IL-1β (25 ng/mL, PeproTech®, Rocky Hill, N.J., USA) and re-incubated. After 48 h, the cells were centrifuged for 7 min at 300 g, reincorporated into Hank's Buffered Salt Solution (1×HBSS, 50 μL/well, Gibco Invitrogen®, Carlsbad, Calif., USA) and transferred into a 96-well polystyrene black plate (Corning Incorporated, Corning, N.Y., USA). An additional 50 μL solution made of CyQUANT NF® dye (component A, 1×) and CyQUANT NF™ delivery agent (component B, 1×) in 1×HBSS was added to the cells in each well, which were covered with aluminum foil and incubated for 45 min. Fluorescence intensity was measured using a microplate reader (Perkin Elmer Wallac Envision® 2104; Perkin Elmer®, California, USA) with excitation at 485 nm and emission detection at 530 nm (FITC 485 and FITC 531 filters, respectively). Hexaplicate experiments were repeated three times and results were analyzed by one-way analysis of variance (ANOVA) factoring for treatments, and data are presented as mean±standard error of the mean (SEM).

[3] = test system: MAP kinase JNK phosphorylation induced by POVPC in RAW 264.7 murine macrophage cells; assay: JNK assay: POVPC-induced JNK phosphorylation in RAW 264.7 macrophages; type: cell-based; conditions: for EC50: 2 h pre-treatment 10^−9 to 10^−6 M, then 10 μg/mL POVPC 30 min, phospho-JNK/total-JNK ratio, read-out: JNK-kinase cellular assay EC50; for inhibitory activity on MAP kinase JNK phosphorylation relative to [azaTyr^4]GHRP-6, in words: POVPC-stimulated RAW 264.7 cells
Description: RAW264.7 murine macrophage cells (American Type Culture Collection, Manassas, Va.) pre-treated with N-amino-imidazolin-2-one peptide for 2 h at concentration varying from 10^−9 to 10^−6 M were stimulated with 10 μg/mL POVPC (Cayman chemical, Ann Arbor, Mich.) for 30 min at 37° C. Cells were lysed on ice and centrifuged at 12,000×g. Aliquots of the resulting supernatant (30 μg of protein) were analyzed on SDS-PAGE and electrotransferred on nitrocellulose membrane. The revelation was performed by incubating the membrane with primary antibody against phospho-JNK or total-JNK (Cell signalling, Pickering, Canada) (1:500) overnight and with secondary HRP-conjugated goat anti-rabbit IgG antibody (Jackson Immunoresearch Laboratories Inc., West Grove, Pa.) (1:10,000) for 1 h. Membrane was visualized by chemiluminescence and intensity of bands was measured with Image Quant software (Molecular Dynamics, Sunnyvale, Calif.). The ratio of phospho-JNK/total-JNK was used to determine the phosphorylation state of JNK modulated by the tested peptide.
RAW 264.7 murine macrophage cells were seeded at 2×10^6 cells/well in a 6-well plate and starved in serum-free media overnight at 37° C. Cells were first pre-treated with the N-amino-imidazolin-2one peptide mimic at concentrations ranging from 10^−9 to 10^−6 M for 2 h and then stimulated with 10 μg/mL POVPC (Cayman chemical, Ann Arbor, Mich.) for 30 min at 37° C. Medium was then removed and cell plates were immediately frozen at −80° C. Cells were then scrapped into 100 μl of RIPA (50 mM Tris-HCl pH 7.5, 150 mM NaCl, 1% Triton X™-100, 0.1% SDS, 25 mM NaF) containing 1 mM PMSF and 1 mM Na3VO4, and incubated on ice for 30 min. The soluble fractions were isolated by centrifugation at 12,000×g for 30 min. The supernatant was collected and proteins were assayed with BCA reagent. Aliquots ([…]) were analyzed on 10% SDS-PAGE and electrotransferred on nitrocellulose membrane. Membrane was blocked with 5% BSA in TBS-T and incubated overnight with primary antibody against phospho-JNK or total-JNK (1:500) (Cell signalling, Pickering, Canada) in 5% BSA TBS-T. The membranes were then washed 5 times with TBS-T and incubated with secondary HRP-conjugated goat anti-rabbit IgG antibody (1:10,000) in 5% BSA TBS-T for 1 h at room temperature. The reaction was visualized by chemiluminescence using SuperSignal™ West Dura (Thermo scientific, Rockford, Ill.) and signals analyzed with Chemilmager™ 5500 (Alpha Innotech, San Leandro, Calif.). The intensity of each band was measured by densitometry using Image Quant™ software (Molecular Dynamics, Sunnyvale, Calif.) and the phosphorylation state was determined from the intensity ratio of phospho-JNK/total-JNK. To determine IC50 of inhibition curves, intensity ratio data were plotted using Prism™ 4 software (GraphPad, La Jolla, Calif.).

## His-D-Trp-Ala-(N-amino-4-methyl-imidazolin-2-one)-D-Phe-Lys-NH2 [YGR 401-2]
[1]
  effect on nitrite/NO production induced by R-FSL-1, in words: comparable to that of EP80317

## His-D-Trp-Ala-(N-amino-4-methyl-imidazolin-2-one)-L-Phe-Lys-NH2 [YGR401-1]
[1]
  effect on nitrite/NO production induced by R-FSL-1, in words: comparable to that of EP80317

## C[C@H](NC(=O)[C@@H](Cc1c[nH]c2ccccc12)NC(=O)[C@@H](N)Cc1cnc[nH]1)C(=O)NN(Cc1ccc(O)cc1)C(=O)N[C@H](Cc1ccccc1)C(=O)N[C@@H](CCCCN)C(N)=O [[azaTyr^4]GHRP-6, His-D-Trp-Ala-AzaTyr-D-Phe-Lys-NH2, reference compound] (HELM PEPTIDE1{H.[dW].A.[O=C(N(Cc1ccc(O)cc1)N[*:1])[*:2]].[dF].K.[am]}$$$$V2.0)
[2]
  Kd: 5 µM

## HAlC-2MeDTrp-DLys-Trp-DPhe-Lys-NH2 [EP80317, reference compound]
[1]
  effect on nitrite/NO production induced by R-FSL-1, in words: negatively modulated nitrite production

## CC(C)C[C@@H](NC(=O)[C@@H](CCC(=O)O)NC(=O)[C@@H](C(C)C)N1CC=CCN(NC(=O)[C@@H](Cc2ccc(O)cc2)NC(=O)[C@H](N)CCCNC(=N)N)C1=O)C(=O)N[C@H](C)C(N)=O [[Nad^3]-101.10, D-Arg-D-Tyr-Nad-D-Val-D-Glu-D-Leu-D-Ala-NH2] (HELM PEPTIDE1{[dR].[dY].[CC(C)[C@H](C(=O)[*:2])N1CC=CCN(N[*:1])C1=O].[dE].[dL].[dA].[am]}$$$$V2.0)
Human TF-1 cells
  exacerbated proliferation over the level of exogenous IL-1β: 53%

## CC(C)C[C@@H](NC(=O)[C@@H](CCC(=O)O)NC(=O)[C@@H](C(C)C)N1CCCN(NC(=O)[C@@H](Cc2ccc(O)cc2)NC(=O)[C@H](N)CCCNC(=N)N)C1=O)C(=O)N[C@H](C)C(N)=O [[Nap^3]-101.10, D-Arg-D-Tyr-Nap-D-Val-D-Glu-D-Leu-D-Ala-NH2] (HELM PEPTIDE1{[dR].[dY].[CC(C)[C@H](C(=O)[*:2])N1CCCN(N[*:1])C1=O].[dE].[dL].[dA].[am]}$$$$V2.0)
Human TF-1 cells
  diminished IL-1β-induced proliferation: 41%

## Cc1ccc(-c2c(C)n(C(Cc3ccccc3)C(=O)N[C@@H](CCCCN)C(N)=O)c(=O)n2NC(=O)[C@H](C)NC(=O)[C@@H](Cc2c[nH]c3ccccc23)NC(=O)[C@@H](N)Cc2cnc[nH]2)cc1 (mixture of isomers) [DNDB3-03, His-D-Trp-Ala-(N-amino-4-methyl-5-p-toluoyl-imidazol-2-one)-DL-Phe-Lys-NH2]
[1]
  effect on nitrite/NO production induced by R-FSL-1, in words: comparable to that of EP80317

## Cc1c(-c2ccccc2)n(NC(=O)[C@H](C)NC(=O)[C@@H](Cc2c[nH]c3ccccc23)NC(=O)[C@@H](N)Cc2cnc[nH]2)c(=O)n1[C@@H](Cc1ccccc1)C(=O)N[C@@H](CCCCN)C(N)=O [DND B2-109, His-D-Trp-Ala-(N-amino-4-methyl-5-phenyl-imidazol-2-one)-L-Phe-Lys-NH2]
[1]
  effect on nitrite/NO production induced by R-FSL-1, in words: comparable to that of EP80317

## His-azaPheAla-Trp-DPhe-Ala-NH2 [CP-1A(i), reference compound]
[1]
  effect on nitrite/NO production induced by R-FSL-1, in words: did not modulate NO production

## Cc1cn(NC(=O)[C@H](C)NC(=O)[C@@H](Cc2c[nH]c3ccccc23)NC(=O)[C@@H](N)Cc2c[nH]cn2)c(=O)n1C(Cc1ccccc1)C(=O)N[C@@H](CCCCN)C(N)=O (stereo partly drawn) [31a, His-D-Trp-Ala-(N-amino-4-methyl-imidazolin-2-one)-D-Phe-Lys-NH2]
[3]
  EC50: 0.0554 µM
  inhibitory activity on MAP kinase JNK phosphorylation relative to [azaTyr^4]GHRP-6, in words: increased inhibitory activity
[2]
  Kd: 4.9 µM
  SPR ΔλSPR (nm): 1.1 nm

## C[C@H](NC(=O)[C@@H](Cc1c[nH]c2ccccc12)NC(=O)[C@@H](N)Cc1c[nH]cn1)C(=O)NN(Cc1ccc(O)cc1)C(=O)N[C@H](Cc1ccccc1)C(=O)N[C@@H](CCCCN)C(N)=O [[azaTyr^4]GHRP-6, His-D-Trp-Ala-AzaTyr-D-Phe-Lys-NH2, reference compound] (HELM PEPTIDE1{H.[dW].A.[O=C(N(Cc1ccc(O)cc1)N[*:1])[*:2]].[dF].K.[am]}$$$$V2.0)
[3]
  EC50: 0.214 µM
[2]
  SPR ΔλSPR (nm): 1.8 nm

## Cc1c(-c2ccccc2)n(NC(=O)[C@H](C)NC(=O)[C@@H](Cc2c[nH]c3ccccc23)NC(=O)[C@@H](N)Cc2cnc[nH]2)c(=O)n1C(Cc1ccccc1)C(=O)N[C@@H](CCCCN)C(N)=O (mixture of isomers) [DNDB3-01, His-D-Trp-Ala-(N-amino-4-methyl-5-phenyl-imidazolin-2-one)-DL-Phe-Lys-NH2]
[1]
  effect on nitrite/NO production induced by R-FSL-1, in words: comparable to that of EP80317

## C[C@H](NC(=O)[C@@H](Cc1c[nH]c2ccccc12)NC(=O)[C@@H](N)Cc1c[nH]cn1)C(=O)Nn1cc(Cc2ccccc2)n([C@H](Cc2ccccc2)C(=O)N[C@@H](CCCCN)C(N)=O)c1=O [31b, His-D-Trp-Ala-(N-amino-4-benzyl-imidazolin-2-one)-D-Phe-Lys-NH2]
[3]
  EC50: > 10 µM
  inhibitory activity on MAP kinase JNK phosphorylation relative to [azaTyr^4]GHRP-6, in words: relatively lower inhibitory activity
[2]; SPR
  affinity for the CD36 receptor relative to [azaTyr^4]GHRP-6, in words: comparable affinity
[2]
  SPR ΔλSPR (nm): 1.6 nm
